According to US9968649B2, “Vasopressin formulations for use in treatment of hypotension” (Par Pharmaceutical, Inc., priority 2015, dated 2018):
Values joined by “and” are separate entries in the source; they are usually repeats but may differ in a detail not shown here. Equal entries are not always repeated.

Test: Effect of temperature on vasopressin formulations: HPLC vasopressin assay and impurities on storage (Example 8)
Type: physicochemical
Procedure: To analyze degradation products of vasopressin that can be present in an illustrative formulation of vasopressin, gradient HPLC was performed to separate vasopressin from related peptides and formulation components. TABLE 2 below depicts the results of the experiment detailing the chemical formula, relative retention time (RRT), molar mass, and structure of vasopressin and detected impurities.
Vasopressin was detected in the eluent using UV absorbance. The concentration of vasopressin in the sample was determined by the external standard method, where the peak area of vasopressin in sample injections was compared to the peak area of vasopressin reference standards in a solution of known concentration. The concentrations of related peptide impurities in the sample were also determined using the external standard method, using the vasopressin reference standard peak area and a unit relative response factor. An impurities marker solution was used to determine the relative retention times of identified related peptides at the time of analysis.
To test the effect of temperature on the stability of vasopressin formulation, solutions containing 20 units/mL vasopressin and chlorobutanol, adjusted to pH 3.5 with acetic acid, were prepared. One mL of each vasopressin formulations was then filled into 3 cc vials. Each Vasopressin Formulation was stored either inverted or upright for at least three months, up to 24 months, at: (i) 5° C.; (ii) 25° C. and 60% relative humidity; or (iii) 40° C. and 75% humidity, and the amount of vasopressin (U/mL) and % total impurities were measured periodically. TABLES 7-12 below display the results of the experiments at 5° C. The results of the experiments at 25° C. are included in TABLES 13-18. All of the experiments were performed in triplicate. The results of the experiments at 40° C. are included in TABLES 19-24. For each temperature tested, three lots of the vasopressin formulation were stored for 24 months (5° C. and 25° C.) and 3 months (40° C.), and measurements were taken at regular intervals during the testing periods. “NMT” as used in the tables denotes “not more than.”
Experiments were also conducted on the same samples above over the course of the experiments to measure the amount of individual impurities in the samples, pH of the samples, chlorobutanol content, particulate matter, antimicrobial effectiveness, and bacterial endotoxin levels (TABLES 25-42). (NR=no reading; ND=not determined; UI=unidentified impurity).

[1] = Upright, 40° C. (75% humidity), 1 month
[2] = Upright, 40° C. (75% humidity), 2 months
[3] = Upright, 40° C. (75% humidity), 3 months
[4] = Upright, 40° C. (75% humidity), Initial
[5] = inverted, 5° C., 1 month, listed as AVP
[6] = inverted, 5° C., 2 months, listed as AVP
[7] = inverted, 5° C., 3 months, listed as AVP
[8] = inverted, 5° C., 6 months, listed as AVP
[9] = inverted, 5° C., 9 months, listed as AVP
[10] = inverted, 5° C., 12 months, listed as AVP
[11] = inverted, 5° C., 18 months, listed as AVP
[12] = inverted, 5° C., 24 months, listed as AVP

NC(=O)CC[C@@H]1NC(=O)[C@H](Cc2ccccc2)NC(=O)[C@H](Cc2ccc(O)cc2)NC(=O)[C@@H](N)CSSC[C@@H](C(=O)N2CCC[C@H]2C(=O)N[C@@H](CCCN=C(N)N)C(=O)NCC(N)=O)NC(=O)[C@H](CC(N)=O)NC1=O [Vasopressin, Cyclo (1-6) L-Cysteinyl-L-Tyrosyl-L-Phenylalanyl-L-Glutaminyl-L-Asparaginyl-L-Cysteinyl-L-Prolyl-L-Arginyl-L-Glycinamide]
effect of upright or inverted storage position on stability: did not markedly affect the stability | Total Impurities [1]: 3.6% and 3.5% | Vasopressin Assay [1]: 18.9 U/mL and 19.2 U/mL | Total Impurities [2]: 7.2% | Vasopressin Assay [2]: 18.5 U/mL and 18.7 U/mL and 18.3 U/mL | Total Impurities [3]: 10.3% | Vasopressin Assay [3]: 17.2 U/mL and 17.4 U/mL and 17.5 U/mL | Total Impurities [4]: 1.1% and 1.3% | Vasopressin Assay [4]: 19.8 U/mL and 20.1 U/mL and 19.9 U/mL | Related Substances: Acetyl-AVP (inverted, 5° C., 1 month): 0.2% and 0.3% | Related Substances: Asp5-AVP (inverted, 5° C., 1 month): 0.1% | Related Substances: SEQ ID NO.: 2 (inverted, 5° C., 1 month): 0.5% | Related Substances: SEQ ID NO.: 4 (inverted, 5° C., 1 month): 0.6% and 0.5% | Related Substances: SEQ ID NO.: 10 (inverted, 5° C., 1 month): 0.3% | Related Substances: UI-0.75-0.78 (inverted, 5° C., 1 month): 0.2% | Related Substances: UI-0.83-0.84 (inverted, 5° C., 1 month): 0.1% | Related Substances: UI-1.02-1.03 (inverted, 5° C., 1 month): 0.2% | Related Substances: UI-1.03 (inverted, 5° C., 1 month): 0.2% | Vasopressin (AVP) Assay (inverted, 5° C., 1 month): 19.4 U/mL and 19.7 U/mL | Total Impurities [5]: 2.0% and 2.2% and 1.9% | Vasopressin (AVP) Assay [5]: 19.4 U/mL and 19.7 U/mL | Related Substances: Acetyl-AVP (inverted, 5° C., 2 months): 0.3% | Related Substances: Asp5-AVP (inverted, 5° C., 2 months): 0.1% | Related Substances: SEQ ID NO.: 2 (inverted, 5° C., 2 months): 0.6% and 0.5% | Related Substances: SEQ ID NO.: 4 (inverted, 5° C., 2 months): 0.6% and 0.5% | Related Substances: SEQ ID NO.: 10 (inverted, 5° C., 2 months): 0.3% | Related Substances: UI-0.75-0.78 (inverted, 5° C., 2 months): 0.2% | Related Substances: UI-0.83-0.84 (inverted, 5° C., 2 months): 0.1% | Related Substances: UI-0.84 (inverted, 5° C., 2 months): 0.1% | Related Substances: UI-1.02-1.03 (inverted, 5° C., 2 months): 0.2% | Related Substances: UI-1.03 (inverted, 5° C., 2 months): 0.2% | Related Substances: UI-2.05 (inverted, 5° C., 2 months): 0.1% | Vasopressin (AVP) Assay (inverted, 5° C., 2 months): 19.4 U/mL and 19.7 U/mL and 19.6 U/mL | Total Impurities [6]: 2.1% and 2.3% and 2.0% | Vasopressin (AVP) Assay [6]: 19.4 U/mL and 19.7 U/mL and 19.6 U/mL | Related Substances: Acetyl-AVP (inverted, 5° C., 3 months): 0.3% | Related Substances: Asp5-AVP (inverted, 5° C., 3 months): 0.1% | Related Substances: SEQ ID NO.: 2 (inverted, 5° C., 3 months): 0.6% and 0.5% | Related Substances: SEQ ID NO.: 4 (inverted, 5° C., 3 months): 0.7% and 0.6% | Related Substances: SEQ ID NO.: 10 (inverted, 5° C., 3 months): 0.4% | Related Substances: UI-0.75-0.78 (inverted, 5° C., 3 months): 0.2% | Related Substances: UI-1.02-1.03 (inverted, 5° C., 3 months): 0.3% | Related Substances: UI-1.03 (inverted, 5° C., 3 months): 0.3% | Related Substances: UI-1.76 (inverted, 5° C., 3 months): 0.1% | Vasopressin (AVP) Assay (inverted, 5° C., 3 months): 19.3 U/mL and 19.7 U/mL | Total Impurities [7]: 2.3% and 2.4% and 2.2% | Vasopressin (AVP) Assay [7]: 19.3 U/mL and 19.7 U/mL | Related Substances: Acetyl-AVP (inverted, 5° C., 6 months): 0.2% and 0.3% | Related Substances: Asp5-AVP (inverted, 5° C., 6 months): 0.1% | Related Substances: SEQ ID NO.: 2 (inverted, 5° C., 6 months): 0.6% and 0.5% | Related Substances: SEQ ID NO.: 4 (inverted, 5° C., 6 months): 0.7% and 0.6% | Related Substances: SEQ ID NO.: 10 (inverted, 5° C., 6 months): 0.3% | Related Substances: UI-0.83-0.84 (inverted, 5° C., 6 months): 0.1% | Related Substances: UI-1.02-1.03 (inverted, 5° C., 6 months): 0.2% | Related Substances: UI-1.03 (inverted, 5° C., 6 months): 0.2% | Vasopressin (AVP) Assay (inverted, 5° C., 6 months): 19.5 U/mL and 19.9 U/mL and 19.8 U/mL | Total Impurities [8]: 2.2% and 2.1% and 2.0% | Vasopressin (AVP) Assay [8]: 19.5 U/mL and 19.9 U/mL and 19.8 U/mL | Related Substances: Acetyl-AVP (inverted, 5° C., 9 months): 0.2% and 0.3% | Related Substances: Asp5-AVP (inverted, 5° C., 9 months): 0.1% | Related Substances: SEQ ID NO.: 2 (inverted, 5° C., 9 months): 0.6% | Related Substances: SEQ ID NO.: 4 (inverted, 5° C., 9 months): 0.7% | Related Substances: SEQ ID NO.: 10 (inverted, 5° C., 9 months): 0.3% | Related Substances: UI-0.75-0.78 (inverted, 5° C., 9 months): 0.1% | Related Substances: UI-1.02-1.03 (inverted, 5° C., 9 months): 0.2% | Related Substances: UI-1.03 (inverted, 5° C., 9 months): 0.2% | Vasopressin (AVP) Assay (inverted, 5° C., 9 months): 19.4 U/mL and 19.7 U/mL | Total Impurities [9]: 2.3% and 2.1% | Vasopressin (AVP) Assay [9]: 19.4 U/mL and 19.7 U/mL | Related Substances: Acetyl-AVP (inverted, 5° C., 12 months): 0.3% | Related Substances: Asp5-AVP (inverted, 5° C., 12 months): 0.2% and 0.1% | Related Substances: SEQ ID NO.: 2 (inverted, 5° C., 12 months): 0.7% and 0.6% | Related Substances: SEQ ID NO.: 4 (inverted, 5° C., 12 months): 0.8% and 0.7% | Related Substances: SEQ ID NO.: 10 (inverted, 5° C., 12 months): 0.4% | Related Substances: UI-0.75-0.78 (inverted, 5° C., 12 months): 0.2% | Related Substances: UI-1.02-1.03 (inverted, 5° C., 12 months): 0.3% | Related Substances: UI-1.03 (inverted, 5° C., 12 months): 0.3% | Vasopressin (AVP) Assay (inverted, 5° C., 12 months): 19.5 U/mL and 19.8 U/mL and 19.9 U/mL | Total Impurities [10]: 2.6% and 2.7% and 2.4% | Vasopressin (AVP) Assay [10]: 19.5 U/mL and 19.8 U/mL and 19.9 U/mL | Related Substances: Acetyl-AVP (inverted, 5° C., 18 months): 0.3% | Related Substances: Asp5-AVP (inverted, 5° C., 18 months): 0.2% | Related Substances: SEQ ID NO.: 2 (inverted, 5° C., 18 months): 0.8% | Related Substances: SEQ ID NO.: 4 (inverted, 5° C., 18 months): 0.9% and 0.8% | Related Substances: SEQ ID NO.: 10 (inverted, 5° C., 18 months): 0.4% | Related Substances: UI-0.75-0.78 (inverted, 5° C., 18 months): 0.2% | Related Substances: UI-1.02-1.03 (inverted, 5° C., 18 months): 0.3% | Related Substances: UI-1.03 (inverted, 5° C., 18 months): 0.3% | Vasopressin (AVP) Assay (inverted, 5° C., 18 months): 19.4 U/mL and 19.7 U/mL and 19.8 U/mL | Total Impurities [11]: 2.9% and 2.6% | Vasopressin (AVP) Assay [11]: 19.4 U/mL and 19.7 U/mL and 19.8 U/mL | Related Substances: Acetyl-AVP (inverted, 5° C., 24 months): 0.3% | Related Substances: Asp5-AVP (inverted, 5° C., 24 months): 0.2% | Related Substances: SEQ ID NO.: 2 (inverted, 5° C., 24 months): 0.9% and 0.8% | Related Substances: SEQ ID NO.: 4 (inverted, 5° C., 24 months): 1.0% and 0.9% | Related Substances: SEQ ID NO.: 10 (inverted, 5° C., 24 months): 0.3% | Related Substances: UI-0.75-0.78 (inverted, 5° C., 24 months): 0.2% | Related Substances: UI-0.83-0.84 (inverted, 5° C., 24 months): 0.1% | Related Substances: UI-1.02-1.03 (inverted, 5° C., 24 months): 0.3% and 0.2% | Related Substances: UI-1.03 (inverted, 5° C., 24 months): 0.2% | Related Substances: UI-1.67 (inverted, 5° C., 24 months): 0.2% | Vasopressin (AVP) Assay (inverted, 5° C., 24 months): 19.3 U/mL and 19.5 U/mL | Total Impurities [12]: 2.9% and 2.8% | Vasopressin (AVP) Assay [12]: 19.3 U/mL and 19.5 U/mL
